This is an account of results in PubChem BioAssay (NCI).

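Step 1: Grow cells in 96-well plates. Step 2: Expose to compound for 48 hours at 5 concentrations. Step 3: Interpolate endpoints linearly; if unreached, use highest concentration. At the TGI there is no net growth.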 A value given as a limit tells only on which side of the number the result lay.

Some test systems named below: 786-0 renal; CAKI-1 renal; DU-145 prostate; HCT-116 colon; K-562 leukemia; KM12 colon; MOLT-4 leukemia; NCI/ADR-RES ovarian; OVCAR-4 ovarian; OVCAR-5 ovarian; RPMI-8226 leukemia; RXF 393 renal; SF-268 CNS; SF-295 CNS; SK-OV-3 ovarian; UACC-257 melanoma; UO-31 renal; CCRF-CEM leukemia; HS 578T breast.
Assay in all cases: DTP human tumour cell line panel, 48 h

`NCCC(=O)N[C@@H](Cc1cc(O)c(O)c(SCC(NC(=O)CC[C@H](N)C(=O)O)C(=O)NCC(=O)O)c1)C(=O)O` (some centres not stated): the concentration for total growth inhibition (TGI) in the experiment on 786-0 renal, in the experiment with CAKI-1 renal, in the experiment with DU-145 prostate, in the experiment on HCT-116 colon, in the experiment with K-562 leukemia and with KM12 colon was greater than 50 µM throughout. Also, the TGI with MOLT-4 leukemia, with NCI/ADR-RES ovarian, with OVCAR-4 ovarian, in the experiment with OVCAR-5 ovarian, in the experiment on RPMI-8226 leukemia and with RXF 393 renal was greater than 50 µM each time. For the same molecule, the TGI in the experiment on SF-268 CNS, in the experiment on SF-295 CNS, in the experiment on SK-OV-3 ovarian, in the experiment on UACC-257 melanoma and in the experiment on UO-31 renal was greater than 50 µM in each case.

On to `COC1O[C@H]2[C@H]3[C@@H]1[C@@H](OS(=O)(=O)c1ccc(C)cc1)C(=O)N3C[C@H]2O` (some centres not stated), for which the total growth inhibition concentration (TGI) in the experiment with 786-0 renal, in the experiment with CAKI-1 renal, in the experiment with DU-145 prostate, in the experiment on HCT-116 colon, in the experiment with K-562 leukemia and in the experiment with KM12 colon was greater than 100 µM in each case. Further, the TGI in the experiment on MOLT-4 leukemia was greater than 100 µM; in the experiment on NCI/ADR-RES ovarian, greater than 100 µM; in the experiment with OVCAR-4 ovarian, greater than 100 µM; in the experiment with OVCAR-5 ovarian it was greater than 100 µM; in the experiment on RPMI-8226 leukemia, greater than 100 µM; with RXF 393 renal, 81.7 µM. In addition, the TGI in the experiment on SF-268 CNS, with SF-295 CNS, in the experiment on SK-OV-3 ovarian, in the experiment with UACC-257 melanoma and in the experiment on UO-31 renal was greater than 100 µM in each case.

Consider `COc1ccc2c(ccc3c(COC(=O)NC(C)C)c(COC(=O)NC(C)C)n(C)c32)c1`, for which the TGI in the experiment with 786-0 renal was 20.8 µM; in the experiment on CAKI-1 renal it was 8.56 µM; in the experiment with CCRF-CEM leukemia, greater than 100 µM; in the experiment on HCT-116 colon, 17.4 µM; in the experiment on HS 578T breast, 38.2 µM; in the experiment with K-562 leukemia, greater than 100 µM. For the same molecule, the TGI is 25.4 µM in the experiment with KM12 colon; greater than 100 µM in the experiment with MOLT-4 leukemia; 22.9 µM in the experiment on NCI/ADR-RES ovarian; 28 µM with OVCAR-4 ovarian; 30.8 µM with OVCAR-5 ovarian; greater than 100 µM in the experiment on RPMI-8226 leukemia. Further, the TGI in the experiment with RXF 393 renal was 22.2 µM; with SF-268 CNS, 29.7 µM; with SF-295 CNS it was 46.2 µM; with SK-OV-3 ovarian, 32.5 µM; in the experiment with UACC-257 melanoma it was 27.1 µM; in the experiment on UO-31 renal, 28.9 µM.

As to `COc1cc(/C=C2\C(=O)N(C(=O)c3ccc(NC(C)=O)cc3)N=C2C)ccc1O`, the TGI with 786-0 renal, in the experiment on CAKI-1 renal, in the experiment on CCRF-CEM leukemia, with HCT-116 colon, in the experiment with K-562 leukemia and in the experiment on KM12 colon was greater than 100 µM in each case. In addition, the TGI in the experiment on MOLT-4 leukemia, with OVCAR-4 ovarian, with OVCAR-5 ovarian, in the experiment with RPMI-8226 leukemia, in the experiment with SF-268 CNS and in the experiment on SF-295 CNS was greater than 100 µM throughout. Further, the concentration for total growth inhibition (TGI) in the experiment on UACC-257 melanoma and in the experiment on UO-31 renal was greater than 100 µM each time.

As for `CCCCCCCCCCCCCCCCOCC(CCl)OP(=O)(O)OP(=O)(O)OCC1OC(n2ccc(N)nc2=O)C(O)C1O` (configuration not stated), the total growth inhibition concentration (TGI) in the experiment on 786-0 renal, in the experiment on CAKI-1 renal, in the experiment on CCRF-CEM leukemia, with HCT-116 colon, in the experiment with HS 578T breast and with K-562 leukemia was greater than 100 µM throughout. Further, the TGI in the experiment on KM12 colon, in the experiment with MOLT-4 leukemia, in the experiment on NCI/ADR-RES ovarian, in the experiment with OVCAR-4 ovarian, with OVCAR-5 ovarian and in the experiment on RPMI-8226 leukemia was greater than 100 µM each time. For the same molecule, the total growth inhibition concentration (TGI) in the experiment with RXF 393 renal, in the experiment with SF-268 CNS, in the experiment on SF-295 CNS, in the experiment on SK-OV-3 ovarian, with UACC-257 melanoma and in the experiment with UO-31 renal was greater than 100 µM each time.

Turning to `Brc1cc2c(cc1C1SCCS1)OCO2`, the total growth inhibition concentration (TGI) with 786-0 renal, in the experiment with CAKI-1 renal, in the experiment on CCRF-CEM leukemia, in the experiment on HCT-116 colon, in the experiment with K-562 leukemia and in the experiment with KM12 colon was greater than 100 µM each time. Also, the TGI in the experiment with MOLT-4 leukemia, in the experiment with OVCAR-4 ovarian, in the experiment on OVCAR-5 ovarian, in the experiment on RPMI-8226 leukemia, with SF-268 CNS and with SF-295 CNS was greater than 100 µM in each case. Moreover, the total growth inhibition concentration (TGI) with SK-OV-3 ovarian, in the experiment with UACC-257 melanoma and in the experiment with UO-31 renal was greater than 100 µM in each case.

In the case of `COc1c(C)cc2c(c1O)C1NC(C2)[C@H](O)N2C3COC(=O)[C@@]4(CS[C@@H](c5c(OC(C)=O)c(C)c6c(c53)OCO6)C12)NCCC1=C4NC2C=CC=CC12` (some centres not stated), the concentration for total growth inhibition (TGI) with 786-0 renal was less than 0.01 µM; with CCRF-CEM leukemia, less than 0.01 µM; in the experiment on K-562 leukemia, 0.0202 µM; in the experiment on MOLT-4 leukemia, less than 0.01 µM; in the experiment on RPMI-8226 leukemia it was 0.0161 µM; in the experiment with RXF 393 renal it was less than 0.01 µM. For the same molecule, the concentration for total growth inhibition (TGI) in the experiment with SF-268 CNS was 0.0304 µM; with SF-295 CNS it was less than 0.01 µM; in the experiment with UO-31 renal it was 0.0342 µM.

As for `Cc1nc(C(N)=S)sc1C(=O)CC(=O)C(=O)Nc1nc2ccccc2[nH]1`, the total growth inhibition concentration (TGI) in the experiment with 786-0 renal, in the experiment with CAKI-1 renal, in the experiment with HCT-116 colon, in the experiment with HS 578T breast, in the experiment on K-562 leukemia and with KM12 colon was greater than 100 µM each time. Moreover, the concentration for total growth inhibition (TGI) in the experiment with MOLT-4 leukemia, in the experiment with NCI/ADR-RES ovarian, with OVCAR-4 ovarian, in the experiment with OVCAR-5 ovarian, with RPMI-8226 leukemia and with RXF 393 renal was greater than 100 µM throughout. For the same molecule, the TGI in the experiment on SF-268 CNS, in the experiment on SF-295 CNS, with SK-OV-3 ovarian, in the experiment with UACC-257 melanoma and in the experiment on UO-31 renal was greater than 100 µM each time.

As for `COC(=O)c1c2c(cc3c1CC1(Cc4cc5c(cc4C1=O)CCC5)C3)CCC2` (configuration not stated), the TGI in the experiment with 786-0 renal, with CAKI-1 renal, with CCRF-CEM leukemia, with DU-145 prostate, in the experiment on HCT-116 colon and in the experiment on HS 578T breast was greater than 100 µM in each case. The TGI is greater than 100 µM in the experiment with K-562 leukemia; greater than 100 µM with KM12 colon; greater than 100 µM in the experiment with MOLT-4 leukemia; greater than 100 µM in the experiment on OVCAR-4 ovarian; greater than 100 µM in the experiment on OVCAR-5 ovarian; 57.7 µM in the experiment on RPMI-8226 leukemia. For the same molecule, the TGI in the experiment on SF-268 CNS was greater than 100 µM; in the experiment on SF-295 CNS it was greater than 100 µM; in the experiment on SK-OV-3 ovarian it was 93.8 µM; with UACC-257 melanoma, greater than 100 µM; in the experiment on UO-31 renal, greater than 100 µM.

In general, TGI refers to the concentration at which net growth stops. A low value points to greater sensitivity of the cells.
